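The compound was tested at five concentrations on cells cultured in 96-well plates, with a 48-hour exposure period. GI50 is the concentration that inhibits growth by half.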 Activity calls are given as the source filed them. No stated cut-off is given here; in the data, active = GI50 up to about 1.1 µM and inactive = higher.
Columns and labels:
Experiment in all cases: NCI tumour cell line growth inhibition, 48 h
HOP-18 = system: HOP-18
DLD-1 = system: DLD-1
SNB-78 = system: SNB-78
DMS-273 = system: DMS-273
KM-20L2 = system: KM-20L2
M19-MEL = system: M19-MEL
XF498 = system: XF498
DMS-114 = system: DMS-114
RXF 631 = system: RXF 631

N#C/C(=C\c1ccc(O)c(O)c1)C(=O)NC1CCC(CC2CCC(NC(=O)/C(C#N)=C/c3ccc(O)c(O)c3)CC2)CC1 (stereo not drawn)
GI50 (HOP-18): 2.38 µM (inactive)
GI50 (DLD-1): 0.415 µM (active)
GI50 (SNB-78): 1.59 µM (inactive)
GI50 (DMS-273): 0.222 µM (active)
GI50 (KM-20L2): 1.78 µM (inactive)
GI50 (M19-MEL): 0.443 µM (active)
GI50 (XF498): 2.07 µM (inactive)

O=C(CCc1cc(-c2ccccc2)nc(S)n1)N(Cc1ccccc1)Cc1ccccc1
GI50 (HOP-18): > 100 µM (inactive)
GI50 (DLD-1): > 100 µM (inactive)
GI50 (DMS-114): > 100 µM (inactive)
GI50 (SNB-78): > 100 µM (inactive)
GI50 (DMS-273): > 100 µM (inactive)
GI50 (KM-20L2): > 100 µM (inactive)
GI50 (M19-MEL): > 100 µM (inactive)
GI50 (XF498): > 100 µM (inactive)

COC1CC(OS(=O)(=O)c2ccc([N+](=O)[O-])cc2)C(OC(=O)c2ccccc2)C(C)O1 (stereo not drawn)
GI50 (HOP-18): > 100 µM (inactive)
GI50 (RXF 631): 58.5 µM (inactive)
GI50 (DLD-1): > 100 µM (inactive)
GI50 (SNB-78): > 100 µM (inactive)
GI50 (DMS-273): > 100 µM (inactive)
GI50 (KM-20L2): > 100 µM (inactive)
GI50 (M19-MEL): > 100 µM (inactive)
GI50 (XF498): 31.8 µM (inactive)

NCCn1ccc(NC(c2ccccc2)(c2ccccc2)c2ccccc2)nc1=O
GI50 (HOP-18): > 100 µM (inactive)
GI50 (DLD-1): 63.1 µM (inactive)
GI50 (DMS-114): 18.6 µM (inactive)
GI50 (SNB-78): 20.6 µM (inactive)
GI50 (KM-20L2): 15.7 µM (inactive)
GI50 (M19-MEL): 20.9 µM (inactive)
GI50 (XF498): 13.4 µM (inactive)

CCOC(=O)c1cccnc1C(OC(C)=O)OC(C)=O
GI50 (HOP-18): > 100 µM (inactive)
GI50 (DLD-1): > 100 µM (inactive)
GI50 (DMS-114): > 100 µM (inactive)
GI50 (SNB-78): > 100 µM (inactive)
GI50 (DMS-273): > 100 µM (inactive)
GI50 (KM-20L2): > 100 µM (inactive)
GI50 (M19-MEL): > 100 µM (inactive)
GI50 (XF498): > 100 µM (inactive)

C=CC(=O)C#CC#CC/C=C\CCCCCCC
GI50 (DLD-1): 8.79 µM (inactive)
GI50 (DMS-114): 10.3 µM (inactive)
GI50 (SNB-78): 10.3 µM (inactive)
GI50 (DMS-273): > 20.6 µM (inactive)
GI50 (KM-20L2): > 20.6 µM (inactive)
GI50 (M19-MEL): > 20.6 µM (inactive)

CCOC(=O)CC1COc2ccc3c(c21)OCO3 (stereo not drawn)
GI50 (HOP-18): > 100 µM (inactive)
GI50 (DLD-1): > 100 µM (inactive)
GI50 (DMS-114): > 100 µM (inactive)
GI50 (SNB-78): > 100 µM (inactive)
GI50 (DMS-273): > 100 µM (inactive)
GI50 (KM-20L2): > 100 µM (inactive)
GI50 (M19-MEL): > 100 µM (inactive)
GI50 (XF498): > 100 µM (inactive)

O=C1CCC(=O)C(C(=O)CCC(=O)Nc2cccc(Cl)c2)C1 (stereo not drawn)
GI50 (HOP-18): > 100 µM (inactive)
GI50 (DLD-1): > 100 µM (inactive)
GI50 (KM-20L2): 71 µM (inactive)
GI50 (M19-MEL): > 100 µM (inactive)
GI50 (XF498): > 100 µM (inactive)

COC(=O)CSc1nnc(-c2ccccc2)[nH]1
GI50 (HOP-18): > 100 µM (inactive)
GI50 (DLD-1): > 100 µM (inactive)
GI50 (DMS-114): > 100 µM (inactive)
GI50 (SNB-78): > 100 µM (inactive)
GI50 (DMS-273): > 100 µM (inactive)
GI50 (KM-20L2): > 100 µM (inactive)
GI50 (M19-MEL): > 100 µM (inactive)

COc1ccc(C2S/C(=C\c3ccccc3O)C(=O)N2NC(=O)Cc2ccccc2)cc1 (stereo not drawn)
GI50 (HOP-18): > 100 µM (inactive)
GI50 (DLD-1): > 100 µM (inactive)
GI50 (DMS-114): 74.5 µM (inactive)
GI50 (DMS-273): > 100 µM (inactive)
GI50 (M19-MEL): > 100 µM (inactive)

COC(=O)C(CC(=O)Nc1ccc(Cl)c(Cl)c1)C(=O)C(=O)NC1C2CC3CC(C2)CC1C3 (stereo not drawn)
GI50 (HOP-18): 78.3 µM (inactive)
GI50 (DMS-114): > 100 µM (inactive)
GI50 (SNB-78): > 100 µM (inactive)
GI50 (DMS-273): > 100 µM (inactive)
GI50 (KM-20L2): > 100 µM (inactive)
GI50 (M19-MEL): > 100 µM (inactive)

COc1ccc(C2NC3=C(CCCC3)N2)cc1
GI50 (DLD-1): 88.1 µM (inactive)
GI50 (DMS-114): 75.5 µM (inactive)
GI50 (SNB-78): > 100 µM (inactive)
GI50 (DMS-273): 54.2 µM (inactive)
GI50 (KM-20L2): 31.3 µM (inactive)
GI50 (M19-MEL): 41.6 µM (inactive)
GI50 (XF498): 59 µM (inactive)

CCCCCCCCCCC(O)CCCCCCC(=O)O (stereo not drawn)
GI50 (HOP-18): 27.9 µM (inactive)
GI50 (RXF 631): 19.1 µM (inactive)
GI50 (DLD-1): 19.3 µM (inactive)
GI50 (DMS-114): 23.1 µM (inactive)
GI50 (SNB-78): > 100 µM (inactive)
GI50 (DMS-273): 22.4 µM (inactive)
GI50 (M19-MEL): 35.6 µM (inactive)
GI50 (XF498): 29.8 µM (inactive)

O=C(OCc1ccccc1)N1N=NC2C3CC(OCc4ccccc4)(OCc4ccccc4)C(O3)C21 (stereo not drawn)
GI50 (HOP-18): 20.6 µM (inactive)
GI50 (RXF 631): 46 µM (inactive)
GI50 (DLD-1): 16.9 µM (inactive)
GI50 (DMS-114): 8.99 µM (inactive)
GI50 (SNB-78): 43.7 µM (inactive)
GI50 (DMS-273): 15.5 µM (inactive)
GI50 (KM-20L2): 40.7 µM (inactive)
GI50 (M19-MEL): 24.4 µM (inactive)
GI50 (XF498): 22.7 µM (inactive)

Cc1cc(NS(=O)(=O)c2ccc(Nc3c4ccccc4nc4c(C(=O)N5CCN(CCOS(C)(=O)=O)CC5)cccc34)cc2)no1
GI50 (DLD-1): > 100 µM (inactive)
GI50 (DMS-114): > 100 µM (inactive)
GI50 (SNB-78): > 100 µM (inactive)
GI50 (DMS-273): > 100 µM (inactive)
GI50 (KM-20L2): > 100 µM (inactive)
GI50 (M19-MEL): > 100 µM (inactive)
GI50 (XF498): > 100 µM (inactive)

O=C1C(=O)N(c2ccc(Cl)cc2)C(=O)/C(=N/c2cccc3c(=O)[nH][nH]c(=O)c23)C1c1nc2ccccc2o1 (stereo not drawn)
GI50 (HOP-18): > 100 µM (inactive)
GI50 (RXF 631): > 100 µM (inactive)
GI50 (DLD-1): > 100 µM (inactive)
GI50 (SNB-78): > 100 µM (inactive)
GI50 (DMS-273): > 100 µM (inactive)
GI50 (KM-20L2): > 100 µM (inactive)
GI50 (M19-MEL): > 100 µM (inactive)

CCN(CC)c1ccc(/C=C2/C[N+](C)(C)C/C(=C/c3ccc(N(CC)CC)cc3)C2=O)cc1
GI50 (HOP-18): 6.61 µM (inactive)
GI50 (RXF 631): > 30.3 µM (inactive)
GI50 (DLD-1): 9.59 µM (inactive)
GI50 (DMS-114): 1.41 µM (inactive)
GI50 (SNB-78): 2.82 µM (inactive)
GI50 (KM-20L2): 2.59 µM (inactive)
GI50 (M19-MEL): 1.45 µM (inactive)
GI50 (XF498): 2.48 µM (inactive)

O=S1(=O)CS(=O)(=O)OCCO1
GI50 (HOP-18): > 100 µM (inactive)
GI50 (RXF 631): 47.8 µM (inactive)
GI50 (DLD-1): 54.7 µM (inactive)
GI50 (DMS-114): 37.5 µM (inactive)
GI50 (SNB-78): 17.4 µM (inactive)
GI50 (DMS-273): 51.1 µM (inactive)
GI50 (KM-20L2): 76.6 µM (inactive)
GI50 (M19-MEL): 48.8 µM (inactive)
GI50 (XF498): 15 µM (inactive)

COC(=O)/C(=C/c1ccc(OC)cc1)C(C(=O)O)=C(C)C
GI50 (HOP-18): > 100 µM (inactive)
GI50 (DLD-1): > 100 µM (inactive)
GI50 (DMS-114): > 100 µM (inactive)
GI50 (SNB-78): > 100 µM (inactive)
GI50 (DMS-273): > 100 µM (inactive)
GI50 (KM-20L2): > 100 µM (inactive)
GI50 (M19-MEL): > 100 µM (inactive)

CC1OC(OCC2OC(Oc3c(-c4ccc(O)cc4)oc4cc(O)cc(O)c4c3=O)C(OC3OCC(O)(CO)C3O)C(O)C2O)C(O)C(O)C1O (stereo not drawn)
GI50 (HOP-18): > 100 µM (inactive)
GI50 (RXF 631): > 100 µM (inactive)
GI50 (DLD-1): 36.8 µM (inactive)
GI50 (DMS-114): 32 µM (inactive)
GI50 (SNB-78): > 100 µM (inactive)
GI50 (DMS-273): 49.2 µM (inactive)
GI50 (KM-20L2): > 100 µM (inactive)
GI50 (M19-MEL): 21.7 µM (inactive)

CCOC(=O)c1oc2c(OC)ccc3c2c1CCC3
GI50 (RXF 631): > 100 µM (inactive)
GI50 (DLD-1): > 100 µM (inactive)
GI50 (DMS-114): > 100 µM (inactive)
GI50 (SNB-78): > 100 µM (inactive)
GI50 (DMS-273): > 100 µM (inactive)
GI50 (KM-20L2): > 100 µM (inactive)
GI50 (M19-MEL): > 100 µM (inactive)
GI50 (XF498): > 100 µM (inactive)

CCOC(=O)C1S/C(=N\c2ccccc2)N=C1C (stereo not drawn)
GI50 (HOP-18): > 100 µM (inactive)
GI50 (RXF 631): > 100 µM (inactive)
GI50 (DLD-1): 49.9 µM (inactive)
GI50 (DMS-114): 59 µM (inactive)
GI50 (SNB-78): 83 µM (inactive)
GI50 (KM-20L2): 55.7 µM (inactive)
GI50 (M19-MEL): > 100 µM (inactive)
GI50 (XF498): > 100 µM (inactive)

O=Cc1ccc(-c2cccs2)s1
GI50 (HOP-18): > 62.8 µM (inactive)
GI50 (RXF 631): 5.08 µM (inactive)
GI50 (DLD-1): > 63.1 µM (inactive)
GI50 (DMS-114): > 90.8 µM (inactive)
GI50 (SNB-78): > 100 µM (inactive)
GI50 (DMS-273): > 100 µM (inactive)
GI50 (KM-20L2): 47.9 µM (inactive)
GI50 (M19-MEL): > 100 µM (inactive)
GI50 (XF498): 4.33 µM (inactive)

CN(C)CCNc1ccc2nnn3c4ccccc4c(=O)c1c23
GI50 (RXF 631): 1.81 µM (inactive)
GI50 (DLD-1): 3.61 µM (inactive)
GI50 (DMS-114): 4.07 µM (inactive)
GI50 (SNB-78): 6.34 µM (inactive)
GI50 (DMS-273): 3.2 µM (inactive)
GI50 (KM-20L2): 2.68 µM (inactive)
GI50 (M19-MEL): 2.86 µM (inactive)
GI50 (XF498): 6.38 µM (inactive)

NC(C(=O)O)c1ccc(C(=O)O)cc1 (stereo not drawn)
GI50 (RXF 631): > 100 µM (inactive)
GI50 (DLD-1): > 100 µM (inactive)
GI50 (DMS-114): > 100 µM (inactive)
GI50 (SNB-78): > 100 µM (inactive)
GI50 (KM-20L2): > 100 µM (inactive)
GI50 (M19-MEL): > 100 µM (inactive)
GI50 (XF498): > 100 µM (inactive)

C/C=C/C1=C(Cl)C(=O)[C@@H](Cl)[C@@]1(O)C(=O)OC [(+)-CRYPTOSPORIPSIN]
GI50 (HOP-18): 4.09 µM (inactive)
GI50 (RXF 631): 10.5 µM (inactive)
GI50 (DLD-1): 2.28 µM (inactive)
GI50 (SNB-78): 5.18 µM (inactive)
GI50 (DMS-273): 3.54 µM (inactive)
GI50 (KM-20L2): 4.68 µM (inactive)
GI50 (M19-MEL): 2.55 µM (inactive)
GI50 (XF498): 2.82 µM (inactive)

From ChEMBL document CHEMBL1201862, “PubChem BioAssay data set” (2004)
